Measured values taken from ChEMBL document CHEMBL1129376, “Localizing antithrombotic and vasodilatory activity with a novel, ultrafast nitric oxide donor” (J Med Chem, 1996).

How the values were obtained:
Ovis aries [1] = assay: Intravenous dose of compound that lowered pulmonary arterial pressure (PAP) in ovine pulmonary hypertension model; Range is 0.8-13 nM/kg min; type: functional, organism-based; details: Artery
Ovis aries [2] = assay: Intravenous dose of compound that lowered systemic arterial pressure (SAP) in ovine pulmonary hypertension model; Range is 0.8-13 nM/kg min; type: functional, organism-based; details: Artery
[3] = Half life of compound for dissociation in DETA and NO; type: ADME
[4] = Rate constant of compound for dissociation in proline and NO; type: ADME
[5] = Half life of compound for dissociation in proline and NO; type: ADME
Ovis aries [6] = assay: Intravenous dose of compound that lowered systemic arterial pressure following in ovine pulmonary hypertension model; type: functional, Artery
Ovis aries [7] = assay: Intravenous dose that lowered pulmonary arterial pressure withouteffect on systemic hemodynamics in sheep with drug-induced pulmonary hypertension; type: functional, Artery
Ovis aries [8] = assay: Pulmonary arterial pressure (PAP) in sheep on i.v. administration of 24 nM/ kg min; type: functional, Artery

## SODIUM NITROPRUSSIDE
Ovis aries [1]
  Dose (nM min-1 kg-1): 13
Ovis aries [2]
  Dose (nM min-1 kg-1): 13

## NCCN(CCN)/[N+]([O-])=N/O
[3]
  half-life: 1200 min

## O=C([O-])[C@H]1CCCN1/[N+]([O-])=N/[O-].[Na+].[Na+]
[4]
  Rate constant: 0.39 s⁻¹
[5]
  T1/2: 1.8 s
Ovis aries [6]
  Dose: 48 nM/min/kg
Ovis aries [7]
  Dose: 24 nM/min/kg
Ovis aries [8]
  PAP: 9 mmHg
